From ChEMBL document CHEMBL1201862, “PubChem BioAssay data set” (2004)
Calls of active or inactive are those of the source.

What was measured:
Type in all cases: functional
[1] = target: Calcium/calmodulin-dependent protein kinase type II subunit alpha (Homo sapiens, UniProt Q9UQM7); assay: Navigating the Kinome. Panel member name: CAMK2A
[2] = target: Dual specificity protein kinase CLK4 (Homo sapiens, UniProt Q9HAZ1)
[3] = target: Serine/threonine-protein kinase Chk1 (Homo sapiens, UniProt O14757);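 also: measured as one member of a kinome-wide kinase profiling panel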
[4] = target: Serine/threonine-protein kinase pim-1 (Homo sapiens, UniProt P11309)
[5] = target: Receptor-type tyrosine-protein kinase FLT3 (Homo sapiens, UniProt P36888);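 also: FLT3 was tested as one member of a kinome-wide kinase panel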
[6] = target: Vascular endothelial growth factor receptor 1 (Homo sapiens, UniProt P17948);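 also: measured within a kinome-wide profiling panel, FLT1 as the panel member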
Chain of Vascular endothelial growth factor receptor 1 (P17948 whole entry): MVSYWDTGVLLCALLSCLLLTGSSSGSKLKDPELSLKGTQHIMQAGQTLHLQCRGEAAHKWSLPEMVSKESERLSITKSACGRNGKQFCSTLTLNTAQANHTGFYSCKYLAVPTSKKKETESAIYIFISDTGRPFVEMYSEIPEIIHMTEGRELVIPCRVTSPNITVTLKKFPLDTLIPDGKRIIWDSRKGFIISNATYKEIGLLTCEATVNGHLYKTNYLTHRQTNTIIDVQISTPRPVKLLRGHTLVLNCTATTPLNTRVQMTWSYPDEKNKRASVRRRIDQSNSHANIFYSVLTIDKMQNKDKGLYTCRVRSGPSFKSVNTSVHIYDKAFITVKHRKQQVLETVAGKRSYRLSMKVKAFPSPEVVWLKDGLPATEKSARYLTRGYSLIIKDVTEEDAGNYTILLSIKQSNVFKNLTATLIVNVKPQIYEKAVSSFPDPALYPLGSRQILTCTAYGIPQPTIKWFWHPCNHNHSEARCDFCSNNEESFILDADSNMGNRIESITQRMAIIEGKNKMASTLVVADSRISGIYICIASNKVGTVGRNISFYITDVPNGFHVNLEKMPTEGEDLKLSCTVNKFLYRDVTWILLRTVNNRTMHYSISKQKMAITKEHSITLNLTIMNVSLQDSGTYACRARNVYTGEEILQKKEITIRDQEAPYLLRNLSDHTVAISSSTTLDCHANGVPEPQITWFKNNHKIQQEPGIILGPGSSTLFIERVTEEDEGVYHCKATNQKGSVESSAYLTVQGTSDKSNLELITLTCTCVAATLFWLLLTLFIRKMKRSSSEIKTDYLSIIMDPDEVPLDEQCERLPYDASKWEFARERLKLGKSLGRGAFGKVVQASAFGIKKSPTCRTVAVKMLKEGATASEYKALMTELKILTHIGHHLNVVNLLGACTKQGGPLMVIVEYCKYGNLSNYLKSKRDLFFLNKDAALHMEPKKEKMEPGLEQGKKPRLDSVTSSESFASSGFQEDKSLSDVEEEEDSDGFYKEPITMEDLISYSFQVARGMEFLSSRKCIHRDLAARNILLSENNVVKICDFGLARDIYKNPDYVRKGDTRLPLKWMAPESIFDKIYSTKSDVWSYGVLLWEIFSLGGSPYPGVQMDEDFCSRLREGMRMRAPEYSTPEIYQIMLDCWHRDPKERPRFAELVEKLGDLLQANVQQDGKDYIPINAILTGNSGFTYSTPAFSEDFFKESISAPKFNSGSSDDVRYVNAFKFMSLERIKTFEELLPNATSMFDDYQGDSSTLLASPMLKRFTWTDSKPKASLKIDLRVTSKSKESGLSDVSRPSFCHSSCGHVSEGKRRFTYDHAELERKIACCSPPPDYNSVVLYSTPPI

[7] = target: cAMP-dependent protein kinase catalytic subunit alpha (Homo sapiens, UniProt P17612)
[8] = target: Platelet-derived growth factor receptor beta (Homo sapiens, UniProt P09619);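 also: value comes from a kinome panel, with PDGFRB tested as one panel member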
[9] = target: Macrophage colony-stimulating factor 1 receptor (Homo sapiens, UniProt P07333);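 also: value comes from the Navigating the Kinome screening panel, CSF1R member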
[10] = target: Serine/threonine-protein kinase TAO1 (Homo sapiens, UniProt Q7L7X3)
[11] = target: Macrophage-stimulating protein receptor (Homo sapiens, UniProt Q04912); assay: Navigating the Kinome. Panel member name: MST1R
[12] = target: Cyclin-dependent kinase 9 (Homo sapiens, UniProt P50750);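 also: value from the CDK9 entry of a kinome-spanning kinase panel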
[13] = target: Proto-oncogene tyrosine-protein kinase receptor Ret (Homo sapiens, UniProt P07949);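 also: measured within a kinome-wide profiling panel, RET as the panel member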
Focal adhesion kinase 1 = Focal adhesion kinase 1 (Homo sapiens, UniProt Q05397);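 also: measured as one member of a kinome panel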
[14] = target: Cyclin-dependent kinase 8 (Homo sapiens, UniProt P49336); assay: Navigating the Kinome. Panel member name: CDK8
[15] = target: Glycogen synthase kinase-3 beta (Homo sapiens, UniProt P49841);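 also: value comes from a broad kinome profiling panel, with GSK3B as the panel member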
LIM domain kinase 1 = LIM domain kinase 1 (Homo sapiens, UniProt P53667); assay: Navigating the Kinome. Panel member name: LIMK1
Chain of LIM domain kinase 1 (P53667 whole entry, the tested form may be a part): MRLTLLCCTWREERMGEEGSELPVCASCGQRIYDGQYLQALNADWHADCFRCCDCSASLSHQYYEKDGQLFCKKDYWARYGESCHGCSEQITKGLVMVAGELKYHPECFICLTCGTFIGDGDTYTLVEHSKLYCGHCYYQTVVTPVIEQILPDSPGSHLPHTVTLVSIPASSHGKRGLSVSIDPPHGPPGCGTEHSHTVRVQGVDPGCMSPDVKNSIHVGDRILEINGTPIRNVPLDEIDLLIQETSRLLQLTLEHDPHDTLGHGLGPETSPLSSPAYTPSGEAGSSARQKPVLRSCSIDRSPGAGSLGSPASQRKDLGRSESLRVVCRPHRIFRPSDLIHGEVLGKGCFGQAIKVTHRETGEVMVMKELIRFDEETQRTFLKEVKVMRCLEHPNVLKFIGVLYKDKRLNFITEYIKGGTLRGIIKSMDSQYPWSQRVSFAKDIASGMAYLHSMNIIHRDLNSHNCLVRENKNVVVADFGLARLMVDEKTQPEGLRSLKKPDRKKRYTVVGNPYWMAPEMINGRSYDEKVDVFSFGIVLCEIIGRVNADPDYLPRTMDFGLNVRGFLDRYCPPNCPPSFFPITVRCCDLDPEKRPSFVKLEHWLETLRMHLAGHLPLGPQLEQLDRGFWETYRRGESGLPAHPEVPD

[16] = target: ALK tyrosine kinase receptor (Homo sapiens, UniProt Q9UM73);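 also: ALK tested as one member of a kinase panel screen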
[17] = target: Dual specificity tyrosine-phosphorylation-regulated kinase 1B (Homo sapiens, UniProt Q9Y463); assay: Navigating the Kinome. Panel member name: DYRK1B
[18] = target: Tyrosine-protein kinase JAK2 (Homo sapiens, UniProt O60674);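 also: JAK2 tested as one member of a kinase panel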
[19] = target: Dual specificity tyrosine-phosphorylation-regulated kinase 1A (Homo sapiens, UniProt Q13627);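 also: measured against DYRK1A as one member of a broad kinome profiling panel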
[20] = target: Dual specificity mitogen-activated protein kinase kinase 2 (Homo sapiens, UniProt P36507); assay: Navigating the Kinome. Panel member name: MAP2K2
[21] = target: Leukocyte tyrosine kinase receptor (Homo sapiens, UniProt P29376); assay: Navigating the Kinome. Panel member name: LTK
Aurora kinase A = Aurora kinase A (Homo sapiens, UniProt O14965);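 also: value from the Navigating the Kinome kinase panel profiling, panel entry STK6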
Activated CDC42 kinase 1 = Activated CDC42 kinase 1 (Homo sapiens, UniProt Q07912); assay: Navigating the Kinome. Panel member name: ACK1
[22] = target: Cyclin-dependent kinase 7 (Homo sapiens, UniProt P50613);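 also: value comes from a kinome-wide kinase profiling panel in which CDK7 is one member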
[23] = target: Hepatocyte growth factor receptor (Homo sapiens, UniProt P08581);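 also: kinase panel profiling across the kinome, with MET as the panel member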
Chain of Hepatocyte growth factor receptor (P08581 whole entry): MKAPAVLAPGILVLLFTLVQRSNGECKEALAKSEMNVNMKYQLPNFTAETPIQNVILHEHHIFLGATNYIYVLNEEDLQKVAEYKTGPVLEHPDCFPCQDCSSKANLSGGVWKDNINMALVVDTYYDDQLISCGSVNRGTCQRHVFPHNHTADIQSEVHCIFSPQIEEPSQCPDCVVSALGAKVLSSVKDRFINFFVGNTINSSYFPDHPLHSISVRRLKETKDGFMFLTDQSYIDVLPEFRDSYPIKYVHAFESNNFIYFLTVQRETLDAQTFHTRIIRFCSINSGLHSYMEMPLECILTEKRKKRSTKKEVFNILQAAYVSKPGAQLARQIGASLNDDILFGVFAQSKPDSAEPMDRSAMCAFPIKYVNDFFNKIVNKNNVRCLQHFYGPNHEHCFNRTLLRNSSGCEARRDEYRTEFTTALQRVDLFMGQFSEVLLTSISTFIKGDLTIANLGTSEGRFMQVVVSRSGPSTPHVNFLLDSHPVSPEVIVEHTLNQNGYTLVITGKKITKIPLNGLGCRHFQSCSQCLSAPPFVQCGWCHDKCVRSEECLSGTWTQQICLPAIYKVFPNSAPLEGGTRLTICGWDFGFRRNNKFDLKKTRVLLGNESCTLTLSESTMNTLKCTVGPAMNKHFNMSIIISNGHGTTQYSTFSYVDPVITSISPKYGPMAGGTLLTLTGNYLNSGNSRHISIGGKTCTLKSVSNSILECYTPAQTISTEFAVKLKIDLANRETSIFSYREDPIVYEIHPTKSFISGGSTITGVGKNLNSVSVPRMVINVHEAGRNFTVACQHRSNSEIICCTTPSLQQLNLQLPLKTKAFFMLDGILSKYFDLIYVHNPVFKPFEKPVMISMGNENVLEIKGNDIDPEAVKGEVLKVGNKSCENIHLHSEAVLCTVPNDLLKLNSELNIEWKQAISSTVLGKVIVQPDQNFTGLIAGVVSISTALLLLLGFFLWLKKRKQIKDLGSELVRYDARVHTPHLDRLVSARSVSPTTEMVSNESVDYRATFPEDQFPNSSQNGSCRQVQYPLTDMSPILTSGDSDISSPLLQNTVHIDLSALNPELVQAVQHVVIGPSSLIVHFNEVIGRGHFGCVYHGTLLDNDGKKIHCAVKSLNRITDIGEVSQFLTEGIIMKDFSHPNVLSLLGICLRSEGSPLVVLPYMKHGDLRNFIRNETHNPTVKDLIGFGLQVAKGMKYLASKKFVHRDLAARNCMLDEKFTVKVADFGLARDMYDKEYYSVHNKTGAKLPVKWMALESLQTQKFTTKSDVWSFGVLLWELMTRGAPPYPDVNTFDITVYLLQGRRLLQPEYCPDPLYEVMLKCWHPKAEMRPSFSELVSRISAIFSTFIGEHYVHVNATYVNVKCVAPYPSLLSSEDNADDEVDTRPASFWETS

[24] = target: Fibroblast growth factor receptor 1 (Homo sapiens, UniProt P11362)
[25] = target: Tyrosine-protein kinase JAK3 (Homo sapiens, UniProt P52333)
[26] = target: 5'-AMP-activated protein kinase catalytic subunit alpha-1 (Homo sapiens, UniProt Q13131)
[27] = target: Tyrosine-protein kinase receptor TYRO3 (Homo sapiens, UniProt Q06418);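 also: TYRO3 value obtained as one member of a kinome-wide profiling panel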
Chain of Tyrosine-protein kinase receptor TYRO3 (Q06418 whole entry): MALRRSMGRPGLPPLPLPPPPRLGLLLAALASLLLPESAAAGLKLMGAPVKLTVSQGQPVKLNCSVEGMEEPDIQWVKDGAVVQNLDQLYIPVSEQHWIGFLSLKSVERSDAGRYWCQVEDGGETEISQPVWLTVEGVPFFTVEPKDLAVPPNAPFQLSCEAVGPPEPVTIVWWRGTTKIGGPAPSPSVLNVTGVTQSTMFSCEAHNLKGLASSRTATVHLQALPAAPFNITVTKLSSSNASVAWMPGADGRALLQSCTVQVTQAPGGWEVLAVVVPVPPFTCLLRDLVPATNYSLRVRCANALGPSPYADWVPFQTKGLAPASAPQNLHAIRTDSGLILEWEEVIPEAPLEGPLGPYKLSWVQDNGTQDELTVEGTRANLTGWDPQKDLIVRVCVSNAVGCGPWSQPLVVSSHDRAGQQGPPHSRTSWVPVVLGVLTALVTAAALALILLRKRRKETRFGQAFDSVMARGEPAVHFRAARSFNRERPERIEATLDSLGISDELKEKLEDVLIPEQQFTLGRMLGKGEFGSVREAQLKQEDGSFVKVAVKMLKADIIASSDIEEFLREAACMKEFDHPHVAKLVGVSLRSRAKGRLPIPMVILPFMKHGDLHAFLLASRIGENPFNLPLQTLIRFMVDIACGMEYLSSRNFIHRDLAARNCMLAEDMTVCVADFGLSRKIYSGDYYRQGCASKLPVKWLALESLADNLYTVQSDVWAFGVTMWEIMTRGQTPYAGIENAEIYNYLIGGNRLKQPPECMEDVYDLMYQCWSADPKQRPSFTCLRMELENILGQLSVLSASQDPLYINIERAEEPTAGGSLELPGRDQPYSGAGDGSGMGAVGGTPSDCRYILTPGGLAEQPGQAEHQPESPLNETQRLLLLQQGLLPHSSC

[28] = target: Mitogen-activated protein kinase 8 (Homo sapiens, UniProt P45983);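 also: value comes from one member of a kinome-wide kinase profiling panel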
Chain of Mitogen-activated protein kinase 8 (P45983 whole entry): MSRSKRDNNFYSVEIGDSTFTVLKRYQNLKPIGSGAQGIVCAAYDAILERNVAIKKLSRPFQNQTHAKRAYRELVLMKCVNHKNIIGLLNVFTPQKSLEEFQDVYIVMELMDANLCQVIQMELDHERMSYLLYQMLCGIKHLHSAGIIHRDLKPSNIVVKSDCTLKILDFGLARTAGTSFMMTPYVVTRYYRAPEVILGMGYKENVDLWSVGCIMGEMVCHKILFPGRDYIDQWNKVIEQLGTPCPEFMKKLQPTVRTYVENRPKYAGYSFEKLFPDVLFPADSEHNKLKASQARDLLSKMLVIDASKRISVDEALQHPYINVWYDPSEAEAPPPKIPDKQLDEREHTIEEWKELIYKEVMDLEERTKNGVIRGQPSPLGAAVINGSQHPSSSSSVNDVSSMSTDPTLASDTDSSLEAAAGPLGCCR

[29] = target: Dual specificity mitogen-activated protein kinase kinase 1 (Homo sapiens, UniProt Q02750); assay: Navigating the Kinome. Panel member name: MAP2K1
Chain of Dual specificity mitogen-activated protein kinase kinase 1 (Q02750 whole entry): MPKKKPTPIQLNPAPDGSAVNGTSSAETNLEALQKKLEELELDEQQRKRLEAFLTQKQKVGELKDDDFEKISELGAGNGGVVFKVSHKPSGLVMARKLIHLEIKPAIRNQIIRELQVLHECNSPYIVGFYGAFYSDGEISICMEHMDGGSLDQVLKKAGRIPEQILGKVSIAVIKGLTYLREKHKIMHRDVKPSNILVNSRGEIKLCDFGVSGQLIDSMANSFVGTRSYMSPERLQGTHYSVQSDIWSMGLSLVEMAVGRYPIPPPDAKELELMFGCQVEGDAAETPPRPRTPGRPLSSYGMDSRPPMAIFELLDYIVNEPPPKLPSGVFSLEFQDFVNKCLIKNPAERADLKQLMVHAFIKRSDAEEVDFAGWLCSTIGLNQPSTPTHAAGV

Measured: Ki

CC(=O)Nc1ccc(-n2nc3ccc(N)nc3n2)cc1
active: [1] 1260 nM | [2] 794 nM | [3] 794 nM | [4] 3980 nM | [5] 2000 nM | [6] 2510 nM | [7] 1260 nM | [8] 2000 nM | [9] 2000 nM | [10] 5010 nM | [11] 2510 nM | [12] 1000 nM | [13] 1580 nM | Focal adhesion kinase 1 5010 nM | [14] 2510 nM | [15] 1260 nM | LIM domain kinase 1 1260 nM | [16] 2000 nM | [17] 1260 nM | [18] 2000 nM | [19] 1000 nM | [20] 1580 nM | [21] 794 nM | Aurora kinase A 1580 nM | Activated CDC42 kinase 1 1000 nM | [22] 2510 nM | [23] 1000 nM | [24] 1260 nM | [25] 2000 nM | [26] 1260 nM | [27] 1260 nM | [28] 2510 nM | [29] 2510 nM
